# Laboratory results reported in ChEMBL document CHEMBL6178021, “Optimization of Tambjamines Active against Multiple Stages of Malaria Parasites” (J Med Chem, 2025).
# Experiments:
# [1] = test system: Plasmodium falciparum; test: Antiplasmodial activity against asexual blood-stage Plasmodium falciparum Tm90-C2B using 2% haematocrit and 0.2% parasitemia assessed as reduction in fluorescence measured after 72 hrs by Malaria SYBR Green I-based Fluorescence (MSF) assay; format: functional, organism-based
# [2] = test system: Plasmodium yoelii; test: Antimalarial activity against erythrocytic Plasmodium yoelii MRA-428 infected in CF1 mouse assessed as reduction in parasitemia at 50 mg/kg, po once daily for 4 days measured on day 5; format: functional; set-up: scale not given: the % may be the effect or the level left; conditions: time 4 day
# [3] = test system: MDR1 (human); test: Efflux ratio, ratio of apparent permeability across apical to basolateral side over basolateral to apical side in MDCK transfected with human MDR1 cells incubated for 1 hr by LC-MS analysis; conditions: dog
# [4] = Metabolic stability in human liver microsomes assessed as half life measured up to 60 mins by LC/MS analysis; format: ADME, Microsome
# [5] = test system: HepG2; test: Cytotoxicity against human HepG2 cells assessed as cell viability measured after 48 hrs by MTT assay; format: toxicity, cell-based; conditions: hepg2
# [6] = test system: Plasmodium yoelii; test: Antimalarial activity against erythrocytic Plasmodium yoelii MRA-428 infected in CF1 mouse assessed as reduction in parasitemia at 25 mg/kg, po once daily for 4 days measured on day 5; format: functional; set-up: scale not given: the % may be the effect or the level left; conditions: time 4 day
# [7] = in vitro; conditions: human, liver microsomes
# [8] = in vitro; conditions: human
# Description: Selectivity index, ratio of IC50 for cytotoxicity against human HepG2 cells to IC50 for antiplasmodial activity against asexual blood-stage Plasmodium falciparum D6
# [9] = test system: MDR1 (human); test: Apparent permeability across basolateral to apical side in MDCK transfected with human MDR1 cells incubated for 1 hr by LC-MS analysis; conditions: dog, MDCK-MDR1
# [10] = test system: Plasmodium yoelii; test: Antimalarial activity against erythrocytic Plasmodium yoelii MRA-428 infected in CF1 mouse assessed as cured mouse at 25 mg/kg, po once daily for 4 days measured on day 28 day; format: functional, organism-based; conditions: time 4.0 day
# [11] = Solubility of the compound in potassium phosphate buffer at pH 7.4 by UV-vis spectroscopy; conditions: buffer
# [12] = test system: MDR1 (human); test: Apparent permeability across apical to basolateral side in MDCK transfected with human MDR1 cells incubated for 1 hr by LC-MS analysis; conditions: dog, MDCK-MDR1
# [13] = test system: Plasmodium falciparum; test: microbe, parasite or virus in culture; conditions: Dd2, 72 h
# Description: Antiplasmodial activity against asexual blood-stage Plasmodium falciparum Dd2 using 2% haematocrit and 0.2% parasitemia assessed as reduction in fluorescence measured after 72 hrs by Malaria SYBR Green I-based Fluorescence (MSF) assay
# [14] = Metabolic stability in mouse liver microsomes assessed as half life measured up to 60 mins by LC/MS analysis; format: ADME, Microsome
# [15] = test system: Plasmodium yoelii; test: Antimalarial activity against erythrocytic Plasmodium yoelii MRA-428 infected in CF1 mouse assessed as cured mouse at 50 mg/kg, po once daily for 4 days measured on day 28 day; format: functional, organism-based; conditions: time 4.0 day
# [16] = in vitro; conditions: mouse, liver microsomes
# [17] = test system: Plasmodium yoelii; test: Antimalarial activity against erythrocytic Plasmodium yoelii MRA-428 infected in CF1 mouse assessed as reduction in parasitemia at 10 mg/kg, po once daily for 4 days measured on day 5; format: functional; set-up: scale not given: the % may be the effect or the level left; conditions: time 4 day
# [18] = test system: Plasmodium falciparum; test: microbe, parasite or virus in culture; conditions: D6, 72 h
# Description: Antiplasmodial activity against asexual blood-stage Plasmodium falciparum D6 using 2% haematocrit and 0.2% parasitemia assessed as reduction in fluorescence measured after 72 hrs by Malaria SYBR Green I-based Fluorescence (MSF) assay
# [19] = test system: Plasmodium yoelii; test: Antimalarial activity against erythrocytic Plasmodium yoelii MRA-428 infected in CF1 mouse assessed as reduction in parasitemia at 80 mg/kg, po once daily for 4 days measured on day 5; format: functional; set-up: scale not given: the % may be the effect or the level left; conditions: time 4 day
# [20] = test system: Plasmodium yoelii; test: Antimalarial activity against erythrocytic Plasmodium yoelii MRA-428 infected in CF1 mouse assessed as cured mouse at 80 mg/kg, po once daily for 4 days measured on day 28 day; format: functional, organism-based; conditions: time 4.0 day
Structure (SMILES),IC50 [1],efflux ratio at 1 h [3],half-life [4],microsomal CLint at 1 h [7],Papp B→A at 1 h [9],solubility [11],Papp A→B at 1 h [12],IC50 [13],half-life [14],microsomal CLint at 1 h [16],Activity [2],IC50 [5],Activity [6],selectivity ratio [8],Activity [10],Activity [15],Activity [17],IC50 [18],Activity [19],Activity [20]
CCC1=C(CC)/C(=C/NC2CCCCCCC2)N=C1c1ccc(C)[nH]1,4.95 nM,–,> 60 min,20.6 µL/min/mg,0.066 ×10⁻⁶ cm/s,< 3.125 µM,0.006 ×10⁻⁶ cm/s,5.75 nM,> 60 min,16.8 µL/min/mg,–,3190 nM,100%,–,Active; Four Mouse Cured Out Of Four,–,68.5%,10.6 nM,100%,Not active; None Of The Mouse Cured Out Of Four Tested
CCC1=C(C)/C(=C/NC2CCCCCC2)N=C1c1ccc(C)[nH]1,23.4 nM,–,48.9 min,28.3 µL/min/mg,–,25.7 µM,–,18.6 nM,> 60 min,8.16 µL/min/mg,100%,6120 nM,100%,–,Not active; None Of The Mouse Cured Out Of Four Tested,Not active; None Of The Mouse Cured Out Of Four Tested,55.3%,29.5 nM,100%,Active; Three Mouse Cured Out Of Four
CCc1ccc(C2=N/C(=C\NC3CCCCC3)C3=C2CCCC3)[nH]1,1.41 nM,–,> 60 min,6.93 µL/min/mg,0.22 ×10⁻⁶ cm/s,19.5 µM,0.007 ×10⁻⁶ cm/s,1.4 nM,> 60 min,5.71 µL/min/mg,100%,1190 nM,100%,–,Not active; None Of The Mouse Cured Out Of Four Tested,Not active; None Of The Mouse Cured Out Of Four Tested,43.1%,3.5 nM,100%,Not active; None Of The Mouse Cured Out Of Four Tested
CCc1ccc(C2=N/C(=C\NC3CCCCCC3)C(C)=C2C)[nH]1,1.55 nM,–,> 60 min,6.78 µL/min/mg,0.035 ×10⁻⁶ cm/s,93.1 µM,–,1.32 nM,> 60 min,4.36 µL/min/mg,100%,–,94.1%,–,–,–,42.8%,2.1 nM,100%,Not active; None Of The Mouse Cured Out Of Four Tested

# More lines, main results first:
IC50 [1],efflux ratio at 1 h [3],half-life [4],microsomal CLint at 1 h [7],Papp B→A at 1 h [9],solubility [11],Papp A→B at 1 h [12],IC50 [13],half-life [14],microsomal CLint at 1 h [16],Structure (SMILES),Activity [2],IC50 [5],Activity [6],selectivity ratio [8],Activity [10],Activity [15],Activity [17],IC50 [18],Activity [19],Activity [20]
32.7 nM,0.43,33.9 min,40.8 µL/min/mg,0.52 ×10⁻⁶ cm/s,237 µM,1.2 ×10⁻⁶ cm/s,49.6 nM,> 60 min,5.49 µL/min/mg,FC(F)(F)[C@H]1CC[C@H](N/C=C2\N=C(c3ccc[nH]3)C3=C2CCCC3)CC1,100%,12400 nM,100%,366,Not active; None Of The Mouse Cured Out Of Four Tested,Not active; One Mouse Cured Out Of Four,–,–,–,–
0.984 nM,0.71,> 60 min,18.5 µL/min/mg,22 ×10⁻⁶ cm/s,10.3 µM,31 ×10⁻⁶ cm/s,1.16 nM,50.3 min,27.5 µL/min/mg,CCC1=C(CC)/C(=C/NC23C[C@H]4C[C@@H](C2)C[C@@H](C3)C4)N=C1c1ccc(CC)[nH]1,100%,1500 nM,100%,1580,Not active; None Of The Mouse Cured Out Of Four Tested,Not active; None Of The Mouse Cured Out Of Four Tested,53%,0.95 nM,–,–
0.844 nM,1,> 60 min,–,0.027 ×10⁻⁶ cm/s,3.95 µM,0.026 ×10⁻⁶ cm/s,0.348 nM,> 60 min,–,CCC1=C(C)/C(=C/NC23C[C@H]4C[C@@H](C2)C[C@@H](C3)C4)N=C1c1ccc(CC)[nH]1,100%,2970 nM,100%,3270,Not active; None Of The Mouse Cured Out Of Four Tested,Not active; None Of The Mouse Cured Out Of Four Tested,100%,0.909 nM,–,–
4.46 nM,0.093,17.6 min,78.7 µL/min/mg,0.025 ×10⁻⁶ cm/s,167 µM,0.27 ×10⁻⁶ cm/s,5.96 nM,43.2 min,32.1 µL/min/mg,COC1=C(OC)/C(=C/NC23C[C@H]4C[C@@H](C2)C[C@@H](C3)C4)N=C1c1ccc[nH]1,100%,4660 nM,100%,789,Not active; One Mouse Cured Out Of Four,Not active; None Of The Mouse Cured Out Of Four Tested,63.1%,–,–,–
13.1 nM,0.85,25.6 min,54.1 µL/min/mg,0.23 ×10⁻⁶ cm/s,185 µM,0.27 ×10⁻⁶ cm/s,2.36 nM,33 min,41.9 µL/min/mg,C[C@H]1CC[C@H](N/C=C2\N=C(c3ccc[nH]3)C3=C2CCCC3)CC1,100%,7770 nM,41.2%,1320,–,–,–,5.88 nM,–,–
169 nM,0.43,22.5 min,61.6 µL/min/mg,0.6 ×10⁻⁶ cm/s,314 µM,1.4 ×10⁻⁶ cm/s,111 nM,53.6 min,25.9 µL/min/mg,CCC1=C(CC)/C(=C/N[C@H]2CC[C@H](C(F)(F)F)CC2)N=C1c1ccc[nH]1,100%,24500 nM,100%,125,Not active; None Of The Mouse Cured Out Of Four Tested,Not active; None Of The Mouse Cured Out Of Four Tested,95.7%,196 nM,–,–
